These results are taken from patent publication US10160726B2, “Quinolone derivatives as antibacterials” (priority 2014, dated 2018).

In brackets after ≈: the same amount, converted by molar mass. Structures can show the parent of a compound that is named as a salt. Where only a bound is given, the exact number is not on record here.

Assay [1] addresses E. coli DNA gyrase (GyrA-B) (Escherichia coli, UniProt P0AES4). The experiment in a line: Supercoiling assay of E. coli gyrase. The format is biochemical. The note with it: supercoiling activity of E. coli gyrase (GyrA-B); read-out: GyrA-B IC50 (Enzyme). As for the experimental part:
Method 1: Supercoiling Assay of E. Coli Gyrase
Enzymatic activity of E. coli DNA gyrase reconstituted from its purified subunits was assessed by monitoring the introduction of supercoils into the relaxed plasmid pHOT-1 (TopoGEN, TG2035-3). To form the functional gyrase A2B2 heterotetrameric enzyme, equal molar concentrations of the GyrA and GyrB subunits were combined at high protein concentration (500 nM) and incubated on ice for 1 hour prior to assay start in reaction buffer without ATP or the pHOT-1 plasmid. The reaction mixture (25 μl) contained 10 nM enzyme, 10 ng/μl pHOT-1, 1 mM ATP, 35 mM Tris-HCl pH 7.5, 24 mM KCl, 4 mM MgCl2, 2 mM DTT, 1.8 mM spermidine, 6.5% glycerol, and 100 μg/ml bovine serum albumin. The reaction was carried out at 37° C. for 90 minutes and terminated by the addition of 2.5 μl of 10× stop solution (0.9% SDS, 50% glycerol, 0.05% bromophenol blue). […] Gels were stained with ethidium bromide (0.5 μg/ml) for 30 minutes and destained in water for 20 minutes. All gels were analyzed using the BIO-RAD ChemiDocTm XRS+ with Image Lab 3.0 software. The 50% inhibition concentration (IC50) was determined as being the compound concentration at which the supercoiled band was reduced by 50% from the DMSO drug free control (Microsoft Excel 2010 IDBS XLfit, GraftPad Prism 6).

Assay [2] relates to E. coli NB27177 (efflux deficient CGSC 11430, ΔtolC732::kan). Briefly: microbe, parasite or virus in culture. The format is cell-based. As to conditions: Escherichia coli, 20 h, read-out: Antibacterial activity (MIC) NB27177.
Assay [3] relates to P. aeruginosa NB52019 (wild-type PAO1). Briefly: MIC, broth microdilution (CLSI). The assay is classed as cell-based. As to conditions: Pseudomonas aeruginosa, PAO1, 20 h; read-out: Antibacterial activity (MIC) NB52019. In general terms: Broth dilution looks for growth in wells or tubes with falling amounts of substance.
For assay [4], the system named is S. aureus NB01006-AVR005 (gyrA S84L, grlA S80F, grlB E471K). The experiment in a line: microbe, parasite or virus in culture. The format is cell-based. As to conditions: Staphylococcus aureus, 20 h, read-out: Antibacterial activity (MIC) NB01006-AVR005.
Assay [5] addresses E. coli DNA topoisomerase IV (Topo IV, ParC-E) (Escherichia coli, UniProt P0AFI2). The experiment in a line: Decatenation assay of E. coli Topo IV. As to conditions: decatenation activity of E. coli topoIV (ParC-E); read-out: ParC-E IC50 (Enzyme). The assay is classed as biochemical. As to the method:
Method 2: Decatenation Assay of E. Coli Topo IV
Enzymatic activity of the E. coli DNA topoisomerase IV (Topo IV) reconstituted from its purified subunits was monitored by the decatenation of kinetoplast DNA into minicircles (kDNA, TopoGEN, TG2013-3). To form the functional Topo IV C2E2 heterotetrameric enzyme, equal molar concentrations of the ParC and ParE subunits were combined at high protein concentration (500 nM) and incubated on ice for 1 hour prior to assay start in reaction buffer without ATP or the kDNA. […] The reaction was carried out at 37° C. for 2 hours and terminated by the addition of 2.5 μl of 10× stop solution (0.9% SDS, 50% glycerol, 0.05% bromophenol blue). […] Gels were stained with ethidium bromide (0.5 μg/ml) for 30 minutes and distained in water for 20 minutes. All gels were analyzed using the BIO-RAD ChemiDoc™ XRS^+ with Image Lab 3.0 software. The 50% inhibitor concentration (IC50) was determined as being the compound concentration at which the presence of the kDNA minicircles in the gel was reduced by 50% from the DMSO drug free control (Microsoft Excel 2010 IDBS XLfit, Graph Pad Prism 6).

Assay [6] relates to P. aeruginosa NB52023 (efflux deficient K1542, ΔmexX ΔmexB). The experiment in a line: microbe, parasite or virus in culture. The assay is classed as cell-based. As to conditions: Pseudomonas aeruginosa, 20 h, read-out: Antibacterial activity (MIC) NB52023.
The test system of assay [7] is E. coli ATCC 25922 (NB27001). The experiment in a line: MIC, broth microdilution (CLSI). The assay is classed as cell-based. As to conditions: Escherichia coli, ATCC25922; E. coli ATCC 25922; 35° C., 20 hours; read-out: Antibacterial activity (MIC) NB27001.
Assay [8] has as its system P. aeruginosa NB52023-CDK0006 (gyrA T83I, parC S87L). The experiment in a line: microbe, parasite or virus in culture. The format is cell-based. The note with it: Pseudomonas aeruginosa, 20 h, read-out: Antibacterial activity (MIC) NB52023-CDK0006.
Assay [9] deals with S. aureus ATCC 29213 (NB01001). The experiment in a line: MIC, broth microdilution (CLSI). The assay is classed as cell-based. The note with it: Staphylococcus aureus, ATCC29213; S. aureus ATCC 29213; 35° C., 20 hours; read-out: Antibacterial activity (MIC) NB01001.

Sequence of E. coli DNA gyrase (GyrA-B) (P0AES4 whole entry): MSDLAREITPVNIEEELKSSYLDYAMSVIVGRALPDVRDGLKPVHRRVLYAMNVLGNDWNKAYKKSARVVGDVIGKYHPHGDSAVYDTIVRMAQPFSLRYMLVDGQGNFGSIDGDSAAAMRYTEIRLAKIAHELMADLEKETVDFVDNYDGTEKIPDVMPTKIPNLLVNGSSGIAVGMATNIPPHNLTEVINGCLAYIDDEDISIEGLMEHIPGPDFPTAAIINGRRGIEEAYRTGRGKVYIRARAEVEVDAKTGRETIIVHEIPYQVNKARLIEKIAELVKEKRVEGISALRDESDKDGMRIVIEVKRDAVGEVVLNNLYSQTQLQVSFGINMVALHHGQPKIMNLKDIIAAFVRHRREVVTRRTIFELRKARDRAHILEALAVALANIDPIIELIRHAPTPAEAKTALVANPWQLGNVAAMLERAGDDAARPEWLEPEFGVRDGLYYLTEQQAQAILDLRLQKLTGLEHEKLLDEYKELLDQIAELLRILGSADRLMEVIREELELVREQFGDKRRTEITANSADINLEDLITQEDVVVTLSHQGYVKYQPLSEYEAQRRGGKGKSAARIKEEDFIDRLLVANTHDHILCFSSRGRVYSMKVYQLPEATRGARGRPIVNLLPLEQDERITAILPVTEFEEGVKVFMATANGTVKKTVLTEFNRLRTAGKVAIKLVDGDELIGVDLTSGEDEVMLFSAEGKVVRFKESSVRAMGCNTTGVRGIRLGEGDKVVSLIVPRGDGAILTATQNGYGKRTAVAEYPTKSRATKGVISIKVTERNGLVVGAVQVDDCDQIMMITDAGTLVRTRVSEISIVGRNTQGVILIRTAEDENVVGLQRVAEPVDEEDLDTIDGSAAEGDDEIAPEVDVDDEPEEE
Sequence of E. coli DNA topoisomerase IV (Topo IV, ParC-E) (P0AFI2 whole entry): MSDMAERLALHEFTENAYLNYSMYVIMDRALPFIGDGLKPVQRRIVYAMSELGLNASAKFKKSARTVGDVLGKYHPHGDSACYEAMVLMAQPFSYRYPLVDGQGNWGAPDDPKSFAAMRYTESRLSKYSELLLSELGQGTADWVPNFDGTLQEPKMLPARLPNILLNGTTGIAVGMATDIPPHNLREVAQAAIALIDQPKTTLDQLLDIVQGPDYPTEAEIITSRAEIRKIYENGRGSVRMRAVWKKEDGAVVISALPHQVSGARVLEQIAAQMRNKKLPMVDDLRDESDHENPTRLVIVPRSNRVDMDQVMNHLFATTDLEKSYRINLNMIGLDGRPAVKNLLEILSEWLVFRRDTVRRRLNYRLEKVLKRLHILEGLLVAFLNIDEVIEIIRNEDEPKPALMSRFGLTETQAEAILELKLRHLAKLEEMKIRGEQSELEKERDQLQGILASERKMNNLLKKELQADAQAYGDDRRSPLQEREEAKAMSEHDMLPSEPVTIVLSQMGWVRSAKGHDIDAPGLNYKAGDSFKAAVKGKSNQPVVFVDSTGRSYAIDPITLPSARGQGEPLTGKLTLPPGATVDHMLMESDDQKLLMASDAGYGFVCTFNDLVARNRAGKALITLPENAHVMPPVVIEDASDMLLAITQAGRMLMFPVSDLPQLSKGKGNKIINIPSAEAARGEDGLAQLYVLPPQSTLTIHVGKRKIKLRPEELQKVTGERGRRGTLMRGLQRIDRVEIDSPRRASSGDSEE
Sequence of E. coli DNA topoisomerase IV (Topo IV, ParC-E) (P20083 whole entry, further chain): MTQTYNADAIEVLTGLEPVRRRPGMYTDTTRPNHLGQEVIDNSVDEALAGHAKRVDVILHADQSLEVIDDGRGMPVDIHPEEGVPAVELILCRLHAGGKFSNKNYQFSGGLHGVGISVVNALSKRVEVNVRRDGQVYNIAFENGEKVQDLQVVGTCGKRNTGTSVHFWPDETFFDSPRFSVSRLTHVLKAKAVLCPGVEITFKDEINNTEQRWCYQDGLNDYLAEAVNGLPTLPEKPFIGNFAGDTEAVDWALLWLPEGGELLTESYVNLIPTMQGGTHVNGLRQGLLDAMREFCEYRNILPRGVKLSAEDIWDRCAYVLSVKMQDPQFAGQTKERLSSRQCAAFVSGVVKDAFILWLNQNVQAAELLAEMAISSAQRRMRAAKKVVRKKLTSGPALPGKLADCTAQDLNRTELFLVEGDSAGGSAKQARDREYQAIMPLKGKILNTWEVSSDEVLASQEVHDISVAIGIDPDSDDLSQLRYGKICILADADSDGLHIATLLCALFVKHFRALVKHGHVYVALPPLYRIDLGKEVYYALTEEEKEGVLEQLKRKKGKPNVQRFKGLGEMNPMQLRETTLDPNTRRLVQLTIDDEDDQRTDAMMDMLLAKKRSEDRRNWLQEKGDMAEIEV

A word on the IC50: it is the concentration needed to halve the response being measured. For `C#Cc1cc(=O)n(C2CC2)c2c(C)c(N3CC[C@@H]([C@H](C)N)C3)c(F)cc12` [Example 25, 7-((R)-3-((S)-1-aminoethyl)pyrrolidin-1-yl)-1-cyclopropyl-4-ethynyl-6-fluoro-8-methylquinolin-2(1H)-one], the IC50 in assay [1] was 1.03 µM; in [5], 6.46 µM. In addition, the MIC in assay [2] was 0.06 µg/mL (≈ 0.17 µM); in assay [3], 8 µg/mL (≈ 22.6 µM); in assay [4], under 0.03 µg/mL; in assay [6], 2 µg/mL (≈ 5.66 µM); in assay [7] it was 4 µg/mL (≈ 11.3 µM); in assay [8], 4 µg/mL (≈ 11.3 µM). Further, the MIC in [9] turned out to be 0.06 µg/mL (≈ 0.17 µM).

As for `Cc1c(N2CC[C@@H]([C@H](C)N)C2)c(F)cc2c(-c3n[nH]c(=O)o3)cc(=O)n(C3CC3)c12` [Example 42, 5-(7-((R)-3-((S)-1-aminoethyl)pyrrolidin-1-yl)-1-cyclopropyl-6-fluoro-8-methyl-2-oxo-1,2-dihydroquinolin-4-yl)-1,3,4-oxadiazol-2(3H)-one], the IC50 in assay [1] was 0.83 µM; in assay [5], 1.86 µM. Further, the MIC in assay [2] is 0.25 µg/mL (≈ 0.605 µM); in assay [3], over 32 µg/mL; in assay [4], 0.5 µg/mL (≈ 1.21 µM); in assay [6], 8 µg/mL (≈ 19.3 µM); in assay [7], 8 µg/mL (≈ 19.3 µM); in [8] it was 32 µg/mL (≈ 77.4 µM). Moreover, the MIC in assay [9] is 0.5 µg/mL (≈ 1.21 µM).

For the compound `Cc1c(N2CC[C@@H]([C@H](C)N)C2)ccc2ccc(=O)n(C3CC3)c12` [Example 76, 7-((R)-3-((S)-1-aminoethyl)pyrrolidin-1-yl)-1-cyclopropyl-8-methylquinolin-2(1H)-one trifluoroacetic acid salt], the values for the IC50 in assay [1] and in [5] were 6.8 µM and 38.5 µM, respectively. Moreover, the MIC is 0.125 µg/mL in [2]; 32 µg/mL in assay [3]; 0.5 µg/mL in assay [4]; 8 µg/mL in assay [6]; 4 µg/mL in [7]; 16 µg/mL in assay [8]. The MIC in [9] is 0.25 µg/mL.
